{"source": "patent US12492195B2", "about": "“Preparation method for and crystal form of 3-aryloxy-3-five-membered heteroaryl-propylamine compound” (Zhangzhou Pien Tze Huang Pharmaceutical Co., Ltd., priority 2020, dated 2025)", "key": {"C57 mice": {"system": "C57 mice", "assay": "hot plate pain model in mice", "format": "in vivo", "settings": "10 mg/kg intraperitoneal, hot plate 55° C.", "experimental": "SPF-grade C57 male mice were placed at hot plate with constant 55±0.1° C. […] If the pain reaction of mice was observed, the mice were taken out immediately to prevent mice from scalding. […] Appropriate amount of test compounds were added into required volume of physiological saline and fully suspended, and the concentration of the drug compound was prepared as 1 mg/ml. The standard volume of administration to mice was 10 ml/kg (or 0.1 ml/10 g). The administration mode was intraperitoneal administration. […] The administration volume was 10 ml/kg. […] Hot plate observation indicator is the time latency of mice on the hot plate at 55±0.1° C. Measurement and recording were conducted at 3 h before administration and 15 min, 30 min, and 60 min after administration. Maximum possible effect (MPE) % was used to evaluate analgesic effect of each compound, i.e., MPE %=[(Post drug latency-baseline latency)/(30-baseline latency)]×100. MPE % at different time points was recorded. The higher the value of MPE % was, the stronger the analgesic effect of the compound was."}, "human TRPA1 channel": {"target": "T1, human TRPA1 channel (Homo sapiens, UniProt O75762)", "T1 construct": "expressed in transfected cells", "T1 sequence (O75762 whole entry)": "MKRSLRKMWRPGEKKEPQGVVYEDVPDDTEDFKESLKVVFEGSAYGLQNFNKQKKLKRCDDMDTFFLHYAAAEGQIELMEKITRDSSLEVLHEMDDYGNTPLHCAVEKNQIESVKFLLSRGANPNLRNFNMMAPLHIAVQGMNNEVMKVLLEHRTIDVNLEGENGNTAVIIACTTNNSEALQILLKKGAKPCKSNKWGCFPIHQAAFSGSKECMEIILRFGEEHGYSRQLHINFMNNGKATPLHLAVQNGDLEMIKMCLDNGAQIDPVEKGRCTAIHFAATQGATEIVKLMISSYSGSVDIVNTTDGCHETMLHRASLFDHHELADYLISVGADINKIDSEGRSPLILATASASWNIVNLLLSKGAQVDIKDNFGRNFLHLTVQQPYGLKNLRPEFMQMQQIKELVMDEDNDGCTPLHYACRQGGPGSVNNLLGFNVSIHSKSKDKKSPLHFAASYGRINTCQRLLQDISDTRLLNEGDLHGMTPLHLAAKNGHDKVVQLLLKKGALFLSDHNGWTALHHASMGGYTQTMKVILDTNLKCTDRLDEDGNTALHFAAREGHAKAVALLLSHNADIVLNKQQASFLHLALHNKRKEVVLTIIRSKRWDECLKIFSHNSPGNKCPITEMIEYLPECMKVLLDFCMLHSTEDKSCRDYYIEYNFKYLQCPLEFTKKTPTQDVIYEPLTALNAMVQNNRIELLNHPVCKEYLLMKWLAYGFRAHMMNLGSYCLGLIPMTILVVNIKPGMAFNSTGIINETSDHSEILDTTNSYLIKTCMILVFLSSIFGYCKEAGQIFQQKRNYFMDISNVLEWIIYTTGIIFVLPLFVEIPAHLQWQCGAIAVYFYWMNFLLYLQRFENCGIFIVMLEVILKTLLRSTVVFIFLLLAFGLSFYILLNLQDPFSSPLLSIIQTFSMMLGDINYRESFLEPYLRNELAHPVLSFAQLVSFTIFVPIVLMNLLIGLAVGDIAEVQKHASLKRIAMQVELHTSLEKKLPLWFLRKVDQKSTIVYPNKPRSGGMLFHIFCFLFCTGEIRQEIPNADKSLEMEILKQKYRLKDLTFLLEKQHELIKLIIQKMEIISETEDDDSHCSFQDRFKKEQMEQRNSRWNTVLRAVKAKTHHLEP", "assay": "manual patch clamp detection of TRPA1 inhibitory activity", "format": "cell-based", "experimental": "The stably transfected HEK293 cell line stably expressing human TRPA1 channel was placed in T75 culture flask with DMEM medium containing 15 μg/mL Blasticidin S HCl, 200 μg/mL Hygromycin B and 10% FBS, and cultured in an incubator in 5% CO2 at 37° C. When the cell density reached about 80%, the culture medium was removed, the residue was rinsed once with phosphate buffered saline (PBS) without calcium and magnesium. 2 mL of Trypsin was added to digest for 2 minutes, and 8 mL of culture medium was added to terminate the digestion. The cells were collected to 15 mL centrifuge tube and centrifuged at 800 rpm for 3 min. After the supernatant was removed, the cells were added to appropriate volume of extracellular fluid for re-suspending.\nIn manual patch clamp detection, HEKA system (Patch Master software) was used together with EPC-10 amplifier to record the whole cell current of TRPA1 stably transfected cell line at room temperature. […]\nThe record of data and the export of current amplitude measurement were carried out by Patch Master software. […] The original current data were corrected by software for leakage reduction, and the hTRPA1 current amplitude was measured at ±100 mV. The compound dose-effect curve and IC50 were fitted and calculated by GraphPad Prism 5.02 (GraphPad Sofhvare, San Diego, CA)."}, "ICR mice": {"system": "ICR mice", "assay": "acetic acid writhing pain model in mice", "format": "in vivo", "settings": "for frequency of writhing response within 30 min: acetic acid 1 h after administration", "experimental": "Male ICR mice, weighed 22-25 g, were fasted but allowed to drink water freely for 2 h before administration. All ICR mice were weighed and grouped randomly, and the number of animals in each group was greater than 10. […] […] The drug was administrated intragastrically based on the weight of mice. 1.5% acetic acid solution (0.1 ml/10 g) was injected intraperitoneally 1 hour after administration, and the frequency of visceral pain in each group of mice within 30 min was observed. When concave abdomen, stretched trunk and hind paw, and high buttocks appeared, one number point was recorded. Finally, the number of appearance of the above phenomenon was counted within 30 minutes."}, "mice": {"system": "mice", "assay": "ICS model in mice (fibromyalgia), mechanical hyperalgesia test", "format": "in vivo", "settings": "10 mg/kg oral", "experimental": "Male C57BUJ6 mice weighing 18-22 g at the beginning of experiment were selected. Each cage had 4 mice which were allowed to feed and drink water freely. Each experimental group had 12 mice, and the experimental mice were labeled by tail labeling method.\nDay 0: At 4:30 pm, the mice were put in a plexiglass box with stainless steel mesh, and then the plexiglass box was put into a cold storage (4±2° C.) overnight. The mice were allowed to feed freely and agar was used to replace water.\nDay 1: At 10:00 am, the mice were delivered to room temperature (24±2° C.) environment for 30 min, and then the mice were delivered to the cold storage for 30 min. The above steps were repeated until 4:30 pm, and the mice were put into the cold storage overnight.\nThe compounds were administered orally according to the schedule of experiment, and the dosage was 10 mg/kg.\nOn the fourth day after modeling, the pre-administration mechanical hyperalgesia test was performed on the animals. Animals with PWT value greater than 0.5 g were excluded and were not used for experiments. On the fifth day after modeling, the animals were tested for mechanical hyperalgesia test at 0.5 h, 1 h, and 2 h after the administration of compounds.\nThe mice were individually placed in a plexiglass box with a grid on the bottom of the box to ensure that the mice paw could be tested. The mice were allowed to adapt for 15 min before the test. After the adaptation was completed, the test fiber was used to test at the center of the left hind paw of mice. The test fiber comprised 8 test strengths: 2.36(0.02 g), 2.44(0.04 g), 2.83(0.07 g), 3.22(0.16 g), 3.61(0.4 g), 3.84(0.6 g), 4.08(1 g), and 4.17(1.4 g). During the test, the test fiber was pressed vertically against the skin and forced to bend for 6-8 s with a 5 s interval between each test. During the test, rapid withdrawal of animal paw was recorded as pain response. When the test fiber was removed from animal skin, the withdrawal of animal paw was also recorded as pain response. If animal moved or walked, the pain response was not recorded, and the test was repeated. In the test. 3.22(0.16 g) was used firstly. […] The maximum strength of tested fiber was 4.17(1.4 g).\nMechanical hyperalgesia was calculated by using the following formula: 50% response threshold (g)=(10^(Xf+k))/10,000; • Xf=the final test fiber value used in the test; • k=table value (Chaplan et al., 1994, page 62); • =mean difference 5. Data Collection and Analysis"}}}
{"smiles": "CNCC[C@H](Oc1cccc2c1CCC2)c1cccs1", "note": "[IC-10]", "values": [{"measurement": "analgesic activity compared with the positive controls gabapentin and duloxetine", "setting": "C57 mice", "value": "stronger than those of gabapentin and duloxetine"}, {"measurement": "ratio of IC50 of the S configuration of duloxetine to the IC50 of the compound", "setting": "human TRPA1 channel", "value": 3.9}]}
{"smiles": "CNCC[C@H](Oc1cccc2ccoc12)c1cccs1", "note": "[IC-1, (S)-3-(Benzofuran-7-yloxy)-N-methyl-3-(thiophen-2-yl)propan-1-amine]", "values": [{"measurement": "analgesic activity compared with the positive controls gabapentin and duloxetine", "setting": "C57 mice", "value": "stronger than those of gabapentin and duloxetine"}, {"measurement": "ratio of IC50 of the S configuration of duloxetine to the IC50 of the compound", "setting": "human TRPA1 channel", "value": 10.14}, {"measurement": "frequency of writhing response within 30 min", "setting": "ICR mice; 5 mg/kg intragastric", "value": 20, "unit": "times"}, {"measurement": "frequency of writhing response within 30 min", "setting": "ICR mice; 10 mg/kg intragastric", "value": 17, "unit": "times"}, {"measurement": "half effective dose (EDso)", "setting": "ICR mice; acetic acid writhing, intragastric", "value": "less than 5 mg/kg"}, {"measurement": "PWT(g) Mean ± SD", "setting": "mice; 0.5 h after administration", "value": "0.482 ± 0.199", "unit": "g"}, {"measurement": "PWT(g) Mean ± SD", "setting": "mice; 1 h after administration", "value": "0.773 ± 0.261", "unit": "g"}, {"measurement": "PWT(g) Mean ± SD", "setting": "mice; 2 h after administration", "value": "0.607 ± 0.160", "unit": "g"}]}
{"smiles": "CNCC[C@H](Oc1cccc2ccccc12)c1cccs1", "note": "[Duloxetine (S configuration), Duloxetine, reference compound]", "values": [{"measurement": "frequency of writhing response within 30 min", "setting": "ICR mice; 10 mg/kg intragastric", "value": 27, "unit": "times"}, {"measurement": "frequency of writhing response within 30 min", "setting": "ICR mice; 20 mg/kg intragastric", "value": 21, "unit": "times"}, {"measurement": "PWT(g) Mean ± SD", "setting": "mice; 0.5 h after administration", "value": "0.416 ± 0.140", "unit": "g"}, {"measurement": "PWT(g) Mean ± SD", "setting": "mice; 1 h after administration", "value": "0.648 ± 0.155", "unit": "g"}, {"measurement": "PWT(g) Mean ± SD", "setting": "mice; 2 h after administration", "value": "0.530 ± 0.235", "unit": "g"}]}
